The text below walks through data of article PMC7489219 (Molecular Brain, 2020).

Structures can show the parent of a compound that is named as a salt.

The subject of the test is T1, primary mouse cortical neurons.
T1 construct: primary cortical neurons, DIV 10
Nature of the test: cells. Particulars: Cortical neurone, 20 h, read-out: % inhibition, inhibition of NMDA-induced cell death (protection score), 30 min pre-treatment. The arrangement: Protection from NMDA-induced (30 uM, 10 min) neuronal death; Hoechst nuclear morphology by automated microscopy. The essentials: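 On DIV 10, primary mouse cortical neurons were given compound at 10 μM for 30 min at 37 °C, then 30 μM NMDA for 10 min, washed, and kept 20 h with compound. Dead cells were scored by nuclear morphology, and % protection was derived from survival relative to vehicle + NMDA and untreated controls.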

As a reminder, the inhibition is the drop in the measured response relative to a control, in per cent. For `C[C@]12CCC(=O)C=C1CC[C@@H]1[C@@H]2[C@@H](O)C[C@@]2(C)[C@H]1CC[C@]2(O)C(=O)CO` [Hydrocortisone (Cortisol)], the inhibition at 10 µM came to 4.6%.

`C[C@H]1O[C@H](O[C@H]2[C@H](O)[C@@H](O)[C@@H](O[C@@H]([C@H](O)[C@@H](O)C=O)[C@H](O)CO)O[C@@H]2CO)[C@H](O)[C@@H](O)[C@@H]1N[C@H]1C=C(CO)[C@@H](O)[C@H](O)[C@H]1O` [Acarbose]: the inhibition at 10 µM stood at 4.12%. Regarding `Oc1ccc(/C=C/c2cc(O)cc(O)c2)cc1` [Resveratrol], the inhibition at 10 µM stood at 22.8%. Turning to `O=C(O)C[C@H](O)C[C@H](O)/C=C/c1c(C2CC2)nc2ccccc2c1-c1ccc(F)cc1` [Pitavastatin calcium (Livalo)], the inhibition at 10 µM came out at 17.7%. `C#C[C@]1(O)CC[C@H]2[C@@H]3CCc4cc(O)ccc4[C@H]3CC[C@@]21C` [Ethinyl estradiol]: the inhibition at 10 µM turned out to be 57.3%. Next, `O=C(O)[C@H]1O[C@@H](Oc2cc3oc(-c4ccccc4)cc(=O)c3c(O)c2O)[C@H](O)[C@@H](O)[C@@H]1O` [Baicalin]: -3.47%. As to `CNS(=O)(=O)Cc1ccc2[nH]cc(CCN(C)C)c2c1` [Sumatriptan succinate], the inhibition at 10 µM stood at 8.05%. As for `C=CC1=C(C(=O)O)N2C(=O)[C@@H](NC(=O)/C(=N\O)c3csc(N)n3)[C@H]2SC1` [Cefdinir (Omnicef)], the figure is 44.5%. In the case of `CC(C)NCC(O)c1ccc(O)c(O)c1` (stereo not shown) [Isoprenaline hydrochloride], the inhibition at 10 µM is -0.7%.

As to `O=c1cccc2n1C[C@@H]1CNC[C@H]2C1` [Cytisine (Baphitoxine, Sophorine)], the inhibition at 10 µM was -0.723%.

Take `COc1cc2c(cc1O)CC[C@@H]1[C@@H]2CC[C@]2(C)[C@@H](O)CC[C@@H]12` [2-Methoxyestradiol]: the inhibition at 10 µM turned out to be 19.8%. As for `Cc1ccc(-c2cc(C(F)(F)F)nn2-c2ccc(S(N)(=O)=O)cc2)cc1` [Celecoxib], the figure is -7.05%; as for `NC(=O)c1cn(Cc2c(F)cccc2F)nn1` [Rufinamide (Banzel)], -3.11%. Consider `Nc1ncn([C@H]2C[C@H](O)[C@@H](CO)O2)c(=O)n1` [Decitabine], for which the inhibition at 10 µM came out at 11.3%. Next, `C[C@@H]1O[C@@H](O[C@H]2[C@H](Oc3cc(O)c(C(=O)CCc4ccc(O)cc4)c(O)c3)O[C@H](CO)[C@@H](O)[C@@H]2O)[C@H](O)[C@H](O)[C@H]1O` [Naringin Dihydrochalcone (Naringin DC)]: 7.97%; `O=c1cc(-c2ccccc2)oc2cc(O)cc(O)c12` [Chrysin]: -0.0506%.

Regarding `C[C@H]1[C@H](NC(=O)/C(=N\OC(C)(C)C(=O)O)c2csc(N)n2)C(=O)N1S(=O)(=O)O` [Aztreonam (Azactam, Cayston)], the inhibition at 10 µM was -1.22%.

Turning to `CCC(=O)NCC[C@@H]1CCc2ccc3c(c21)CCO3` [Ramelteon (TAK-375)], the inhibition at 10 µM was -3.3%.

As to `C[N+](C)(C)C[C@H](O)CC(=O)[O-]` [L-carnitine (Levocarnitine)], the inhibition at 10 µM came to 3.2%. As for `COc1cnc(NS(=O)(=O)c2ccc(N)cc2)nc1` [Sulfameter (Bayrena)], the figure is 28.2%. As for `NS(=O)(=O)Cc1noc2ccccc12` [Zonisamide], the figure is -5.91%; as for `CC(C(=O)O)c1cccc(C(=O)c2ccccc2)c1` (stereo not shown) [Ketoprofen (Actron)], 30.2%; as for `C/C=C1\[C@H]2C=C(C)C[C@]1(N)c1ccc(=O)[nH]c1C2` [(-)-Huperzine A], -1.76%. As for `C[C@]12CC[C@@H]3c4ccc(O)cc4CC[C@H]3[C@@H]1CCC2=O` [Estrone], the figure is -2.18%; as for `CC1(C)O[C@@H]2C[C@H]3[C@@H]4CCC5=CC(=O)C=C[C@]5(C)[C@@]4(F)[C@@H](O)C[C@]3(C)[C@]2(C(=O)CO)O1` [Triamcinolone acetonide], 59.8%.
